The source of these data is patent US12497399B2, “Fluorinated integrin antagonists” (OcuTerra Therapeutics, Inc., priority 2013, dated 2025).

In data set [1] the test system is αv integrin. Description: Cell adhesion assay: RLMVEC adhesion to vitronectin coated plates. It counts as cell-based. The settings on record: rat lung microvascular endothelial cells, 1.5 h at 37° C., read-out: IC50 to block adhesion of RLMVEC to vitronectin. On the procedure:
(§1) The ability of compounds to block adhesion of three primary cell cultures: human dermal microvascular endothelial (HMVEC), rat lung microvascular endothelial (RLMVEC), and rabbit aortic endothelial (RAEC) cells, to vitronectin coated plates was determined using the following procedure.
(§2) Adhesion plates preparation. 96-well plates were coated with vitronectin in PBS, pH 7.4 by incubating 50 μL of the solution (10 μg/ml) for 1.5 h at room temperature or overnight at 4° C. The plates then were blocked with 1% BSA in PBS (30 min at room temperature) and washed with PBS.
(§3) Cell culturing and loading. HMVEC cells (passages (p)9-14) (from Lonza, Allendale, NJ) RLMVEC cells (p4-14) (from Vec Technology, Rensselaer, NY) and RAEC cells (p4-14) (from CellBiologics, Chicago, IL) were used for the compound testing. Cells were grown in T175 tissue culture flasks and dislodged by gentle 3 min treatment with Accutase (Life Technologies). After washing, the cells in suspension in RPMI-1640 (Life Technologies) were loaded with calcein-AM (5 μM) (Life Technologies) for 30 min at 37° C. and re-suspended into RPMI w/o phenol red medium containing 10% FBS.
(§4) Adhesion assay. The cell suspension was aliquoted into the wells at a density of 1.0×10^5 cells/well (RLMVEC) and 5.0×10^4 (HMVEC, and RAEC). The test compounds are added at the same time with the cells. The plates are incubated for 1.5 h at 37° C. […] The wash was performed by 2 cycles of aspiration of the supernatant and addition of 100 μL of the pre-warmed fresh DPBS (Life Technologies). A fluorescence of the remaining cells is measured using multimode plate reader (Victor 2V, PerkinElmer) at an excitation/emission wavelengths of 485/535 nm. The compounds were tested starting with maximal concentration of 1 μM with half-log dilution schedule. IC50 values were calculated with Prism 5 (GraphPad, CA) by fixing the bottom of the curves to a value of blank for empty wells fluorescence.

A short description of data set [2]: Distribution in plasma, aqueous humor, vitreous humor and retina after topical ocular administration. Format: in vivo, Dutch Belted rabbits. The settings on record: 50 μL/eye, 1.0-2.5 mg/mL, 0.5 or 1.0 and 8 hours, FIGS. 2, 3, 4.
Description: The plasma concentrations and ocular distribution (aqueous humor, vitreous humor, and retina) of Compounds A1, A2, and A3 were determined following topical ocular administration in Dutch Belted rabbits. […] Aqueous humor, vitreous humor, and retina were collected from each eye at each time point post-dose. Also, weights were recorded. Plasma and ocular sample concentrations of the compounds were determined by LC-MS/MS.
Animal Dosing: The exposure of compounds A1, A2, and A3 was evaluated in Dutch Belted rabbits. The study was not blinded. Each compound was dosed as n=3/time point for a total of nine rabbits. Rabbits were housed one per cage. Animals were not fasted, and food and water were supplied ad libitum.
Animals were anesthetized following the 13IA5 IACUC protocol for the dosing. Each rabbit received a bolus dose of test formulation via topical ocular administration into both eyes at time zero on the day of dosing. Plasma and ocular samples were collected at pre-determined time points. Animals for the 30-minute and 1-hour time points were anesthetized for the entire duration of the study. The animals for the 8-hour time point were recovered after dosing and then euthanized for sampling purposes.
At each time point, approximately 0.5 mL of blood was collected and placed into chilled Na-heparin tubes containing citric acid. Blood samples were centrifuged at a speed of 3,000 g for 5 minutes to obtain plasma as quickly as possible. Samples were stored frozen at −80° C. until analysis. Animals were euthanized per the 13IA5 IACUC protocol and both eyes were enucleated immediately. Following enucleation, each eye was rinsed with PBS. Ocular samples from both eyes of each animal were collected and weights were recorded. All the samples were frozen immediately on dry ice, and stored at −60 to −80° C. for analysis.
Analysis of Plasma and Ocular Samples: An LC-MS/MS method was developed for the determination of Compounds A1, A2, and A3 in rabbit plasma and ocular samples.
For data set [3], the system named is chick chorioallantoic membrane (CAM). In words: Chick chorioallantoic membrane (CAM) anti-angiogenic assay. Format: in vivo. The settings on record: gelatin sponge graft with test compound and 50 ng VEGF; FIG. 1.
Description: CAM surfaces were grafted with gelatin sponges impregnated with the concentrations of test compounds and 50 ng VEGF dissolved in PBS. Untreated CAM received only VEGF and PBS. Error bars represent SEM, N=5, P values for the treated groups were calculated by comparing with the untreated group (*p<0.05, **p<0.01, ***p<0.001). Test Substance Preparation: Test samples and standards were dissolved in PBS and sterilized by passing through a syringe filter (0.22 μm). hVEGF(SIGMA) 50 ng/μl was prepared in sterile PBS. Grafting: Gelatin sponge (Abogel) was cut in approximately 2 mm^3 pieces and loaded with required test substance or PBS and VEGF. The graft was placed on the CAM. Eggs: Fertile hen eggs were procured from a hatchery and were cleaned and decontaminated using alcohol. 1 ml of albumin was removed using a syringe and incubated for 8 days. Grafts were placed on developing CAMs and further incubated to day 12. On day 12, CAMs were fixed with 4% formaldehyde in PBS, dissected and imaged. Imaging: Fixed CAMs were imaged under constant illumination and magnification under a stereomicroscope fitted with a digital camera (CANON). Image analysis: Images were analyzed on MS PowerPoint keeping the image size constant. A ring was drawn around the graft and the size was kept constant. Blood vessels crossing the ring were counted for each test group.
Data set [4] concerns the target T1, αv integrin (Homo sapiens, UniProt P06756).
T1 construct: three primary cell cultures; host or cells: HMVEC primary human dermal microvascular endothelial cells, passages 9-14
Description: Cell adhesion assay: HMVEC adhesion to vitronectin coated plates. The settings on record: human dermal microvascular endothelial cells, 1.5 h at 37° C., read-out: IC50 to block adhesion of HMVEC to vitronectin. Format: cell-based. The procedure:
as §1, §2, §3, §4

For data set [5], the system named is laser-induced choroidal neovascularization. Description: Laser-induced choroidal neovascularization (CNV) model. It counts as in vivo, Dutch Belted rabbits. The settings on record: twice daily topical administration, 50 μL; fluorescein angiography day 35; FIG. 5.
Description: Healthy male animals weighing between 1.5 and 2.0 kg were used in these studies. Animals were weighed prior to dosing and at euthanasia, and more often if needed. Baseline fundus photography and fluorescein angiography was performed on each animal prior to CNV induction.
Animals were anesthetized with an intramuscular injection of ketamine hydrochloride (20 mg/kg) and xylazine (2 mg/kg) for CNV induction, fundus photography, fluorescein angiography, and intravitreal (IVT) injections. Rabbits were maintained on isoflurane (approximatelyl to 3%) in oxygen (approximately 1 to 2 L/min) as necessary. One drop of topical proparacaine hydrochloride anesthetic (0.5%) was placed in each eye before procedures. Additional topical ocular anesthesia was utilized during the procedure if needed.
CNV was induced by laser photocoagulation treatment. […]
Clinical ophthalmic exams (slit-lamp biomicroscopy and indirect ophthalmoscopy), fundus photography, and fluorescein angiography were performed at baseline and then weekly for up to 6 weeks post-induction. Exams were scored using the McDonald-Shadduck Score System. […]
At the conclusion of the study, animals were euthanized per the 13C232Q3 IACUC protocol and both eyes enucleated immediately. […] Ocular samples (aqueous humor, vitreous humor retina and choroid) from both eyes of each animal were collected and weights were recorded. […]
Data set [6] has as its system αv integrin. In words: Cell adhesion assay: RAEC adhesion to vitronectin coated plates. It counts as cell-based. The note with it: rabbit aortic endothelial cells, 1.5 h at 37° C., read-out: IC50 to block adhesion of RAEC to vitronectin. On the procedure:
as §1, §2, §3, §4

T1 sequence (P06756 31-1048): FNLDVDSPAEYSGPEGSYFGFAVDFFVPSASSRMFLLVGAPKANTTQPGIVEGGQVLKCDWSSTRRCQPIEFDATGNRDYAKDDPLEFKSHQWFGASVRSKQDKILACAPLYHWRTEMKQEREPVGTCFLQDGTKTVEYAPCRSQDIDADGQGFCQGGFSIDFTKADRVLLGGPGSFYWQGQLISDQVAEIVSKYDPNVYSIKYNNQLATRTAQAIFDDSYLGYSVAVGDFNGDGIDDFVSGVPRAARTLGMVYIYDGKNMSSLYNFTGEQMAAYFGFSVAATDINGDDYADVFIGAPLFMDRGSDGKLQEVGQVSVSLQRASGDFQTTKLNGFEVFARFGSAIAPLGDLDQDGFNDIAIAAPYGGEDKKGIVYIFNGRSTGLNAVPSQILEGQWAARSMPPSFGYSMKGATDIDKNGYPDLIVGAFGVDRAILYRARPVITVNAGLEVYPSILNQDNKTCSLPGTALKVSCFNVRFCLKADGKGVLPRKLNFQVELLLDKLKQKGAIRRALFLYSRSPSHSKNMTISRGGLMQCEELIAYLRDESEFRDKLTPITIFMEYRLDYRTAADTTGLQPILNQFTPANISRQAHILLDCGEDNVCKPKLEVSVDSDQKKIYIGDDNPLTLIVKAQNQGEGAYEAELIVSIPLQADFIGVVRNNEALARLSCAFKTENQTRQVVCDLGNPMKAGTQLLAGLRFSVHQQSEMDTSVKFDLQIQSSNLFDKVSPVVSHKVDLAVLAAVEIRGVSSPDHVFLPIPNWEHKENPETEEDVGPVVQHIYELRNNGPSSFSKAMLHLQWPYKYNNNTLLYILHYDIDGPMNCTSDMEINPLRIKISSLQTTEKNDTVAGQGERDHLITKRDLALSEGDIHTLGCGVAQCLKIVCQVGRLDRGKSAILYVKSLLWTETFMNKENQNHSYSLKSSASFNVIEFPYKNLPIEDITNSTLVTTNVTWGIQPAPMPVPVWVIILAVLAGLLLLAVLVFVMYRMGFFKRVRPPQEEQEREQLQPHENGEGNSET

The term IC50 denotes the point on the concentration scale where inhibition reaches its midpoint. Regarding `O=C(O)C[C@@H](c1ccc(OC(F)F)nc1)N1CCN(CCCc2ccc3c(n2)NCCC3)C1=O` [Compound A1, (S)-3-(6-(difluoromethoxy)pyridin-3-yl)-3-(2-oxo-3-(3-(5,6,7,8-tetrahydro-1,8-naphthyridin-2-yl)propyl)imidazolidin-1-yl)propanoic acid], the IC50 with αv integrin [1] is 31 nM; at αv integrin [4], 9.4 nM; with αv integrin [6], 8.4 nM. The “distribution to the retina” value in data set [2] is listed as “efficiently distributed to the retina”. Further, the “anti-angiogenic activity: number of blood vessels vs untreated control” value in data set [3] is listed as “significantly decreases the number of blood vessels”. In addition, the “reduction of laser-induced choroidal neovascularization vs vehicle control” value in data set [5] was “effectively reduced laser-induced choroidal neovascularization”.
With `O=C(O)CC(CCCCCCc1ccc2c(n1)NCCC2)c1cnc(C(F)(F)F)nc1` (stereo not shown) [Compound A2, 9-(5,6,7,8-tetrahydro-1,8-naphthyridin-2-yl)-3-(2-(trifluoromethyl)pyrimidin-5-yl)nonanoic Acid], the IC50 turned out to be 68 nM in the data set with αv integrin [1], 160 nM at αv integrin [4] and 16 nM with αv integrin [6]. For the same compound, in data set [2], the “distribution to the retina” value is listed as “efficiently distributed to the retina”. Moreover, the “anti-angiogenic activity: number of blood vessels vs untreated control” value in data set [3] is on record as “significantly decreases the number of blood vessels”. Moreover, the “reduction of laser-induced choroidal neovascularization vs vehicle control” value in data set [5] is recorded as “effectively reduced laser-induced choroidal neovascularization”.
`O=C(O)CC(CCCCCCc1ccc2c(n1)NCCC2)c1ccc(OC(F)F)nc1` (stereo not shown) [Compound A3, 3-(6-(difluoromethoxy)pyridin-3-yl)-9-(5,6,7,8-tetrahydro-1,8-naphthyridin-2-yl)nonanoic Acid]: the IC50 in the data set with αv integrin [1] came out at 230 nM; on αv integrin [4], 620 nM; in the data set on αv integrin [6], 59 nM. In addition, the “distribution to the retina” value in data set [2] is given as “efficiently distributed to the retina”.
As for `O=C(O)CC(CCCCCCc1ccc2c(n1)NCCC2)c1cnc2ccc(F)cc2c1` (stereo not shown) [Compound A4, 3-(6-fluoroquinolin-3-yl)-9-(5,6,7,8-tetrahydro-1,8-naphthyridin-2-yl)nonanoic Acid], the figures for the IC50 with αv integrin [1], at αv integrin [4] and in the data set on αv integrin [6] were 32 nM, 42 nM and 8.5 nM, respectively.
In the same order, the values of `O=C(O)CC(CCCCCCc1ccc2c(n1)NCCC2)c1cnc2cc(F)ccc2c1` (stereo not shown) [Compound A5, 3-(7-fluoroquinolin-3-yl)-9-(5,6,7,8-tetrahydro-1,8-naphthyridin-2-yl)nonanoic Acid] are 37 nM, 250 nM and 20 nM.
For `O=C(O)CC(CCCCCCc1ccc2c(n1)NCCC2)c1cnc2cc(F)c(F)cc2c1` (stereo not shown) [Compound A6, 3-(6,7-difluoroquinolin-3-yl)-9-(5,6,7,8-tetrahydro-1,8-naphthyridin-2-yl)nonanoic Acid] the same measures were 5.5 nM, 44 nM and 44 nM.
In the same order, the values of `O=C(O)CC(CCCCCCc1ccc2c(n1)NCCC2)c1cnc2cc(C(F)(F)F)ccc2c1` (stereo not shown) [Compound A7, 9-(5,6,7,8-tetrahydro-1,8-naphthyridin-2-yl)-3-(7-(trifluoromethyl)quinolin-3-yl)nonanoic Acid] are 400 nM, 130 nM and 210 nM.
